In patent publication EP4818157A1, “N-SUBSTITUTED CYCLIC AMIDE COMPOUND” (Kissei Pharmaceutical Co., Ltd., priority 2023, dated 2025):

Biological target: T1, human TSHR (Homo sapiens, UniProt P16473)
T1 construct: expressed in transfected cells
Test: Measurement of antagonist activity using TSH-induced cAMP production in human TSHR-stably expressing CHO cells
Format: cell-based
Details: human TSH final concentration 50 ng/mL
Description: Measurement of Antagonist Activity Using TSH-induced cAMP Production in Human TSHR-stably Expressing CHO Cells as an Indicator
A gene sequence of human TSHR (reference number NM_000369.2) was inserted into a multiple cloning site of pcDNA3.1(+). The prepared plasmid vector was introduced into CHO cells by a lipofection method to establish human TSHR stably expressing CHO cells. The obtained cells were seeded in a poly-D-lysine-coated 96-well plate at 5 x 10^4 cells/well, and cultured for 1 day in F12 medium containing 10% FBS, 400 µg/mL G418, 50 U/mL penicillin, and 50 µg/mL streptomycin under conditions of 37°C and 5% CO2. After removing a medium, the cells were washed twice with 100 µL per well of an assay buffer (Hanks' Balanced Salt Solution containing 20 mM HEPES and 1 mM IBMX). 30 µL of an assay buffer containing a test compound was added to a well, and the mixture was incubated at room temperature for 15 minutes. Next, 30 µL of an assay buffer containing human TSH (R&D Systems, Inc., final concentration 50 ng/mL) was added, and the mixture was incubated at 37°C for 1 hour. The supernatant was removed, and Lysis and Detection Buffer 2 (Cisbio) was added to prepare a cell lysate by incubating at room temperature for 1 hour. According to the instructions for use of a cAMP Gs HiRange kit (Cisbio), a cell lysate was reacted with d2-labeled cAMP and an anti-cAMP Europium Cryptate labeled antibody (Cisbio) in a 384-well white microplate. Next, a fluorescence intensity ratio (measurement wavelengths 665 nm/620 nm) was measured using a multiplate reader (PHERAstar FSX, BMG LABTECH Japan). A fluorescence intensity ratio of each sample was converted into a cAMP content using a standard curve. A cAMP content was converted into a percentage of a control value, and a cAMP production rate was calculated. Using Prism (Graph Pad Software Inc.), a cAMP production rate was plotted against a test compound concentration, and an IC50 value was calculated. The IC50 of each test compound is shown in the above tables. In the tables, IC50 < 3.0 µM was denoted as A, and 3.0 µM ≤ IC50 < 30 µM was denoted as B. The case where activity was observed but an IC50 value could not be calculated was denoted as C.

T1 sequence (P16473 21-764): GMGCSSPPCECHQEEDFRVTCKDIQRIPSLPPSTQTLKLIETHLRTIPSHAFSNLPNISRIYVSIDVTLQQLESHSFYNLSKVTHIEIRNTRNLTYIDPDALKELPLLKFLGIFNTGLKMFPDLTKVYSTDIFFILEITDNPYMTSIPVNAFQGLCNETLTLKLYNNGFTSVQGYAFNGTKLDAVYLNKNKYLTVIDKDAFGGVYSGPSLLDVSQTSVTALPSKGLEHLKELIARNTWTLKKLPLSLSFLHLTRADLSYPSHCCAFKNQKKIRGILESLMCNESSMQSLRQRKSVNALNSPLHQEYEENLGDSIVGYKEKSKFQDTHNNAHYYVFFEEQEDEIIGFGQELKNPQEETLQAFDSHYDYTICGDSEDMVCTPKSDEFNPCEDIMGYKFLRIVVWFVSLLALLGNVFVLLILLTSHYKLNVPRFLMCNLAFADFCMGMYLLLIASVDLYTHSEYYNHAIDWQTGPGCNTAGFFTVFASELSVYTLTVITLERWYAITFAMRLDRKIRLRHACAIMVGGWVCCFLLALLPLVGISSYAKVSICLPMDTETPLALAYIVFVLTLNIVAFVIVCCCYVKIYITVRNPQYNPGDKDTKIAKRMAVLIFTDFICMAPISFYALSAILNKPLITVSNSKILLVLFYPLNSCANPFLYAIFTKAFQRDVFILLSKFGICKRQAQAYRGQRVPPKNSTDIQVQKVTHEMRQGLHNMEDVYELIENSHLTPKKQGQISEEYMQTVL

## C[C@@H]1CC[C@@H](NC(N)=O)C(=O)N1Cc1cc(Cc2ccccc2)ccc1F (relative stereo) [Example A-5, 1-((3R^*,6R^*)-1-(5-benzyl-2-fluorobenzyl)-6-methyl-2-oxopiperidin-3-yl)urea]
  IC50: < 3 µM

## NC(=O)N[C@@H]1Cc2ccccc2N(CCCc2ccccc2)C1=O [Example C-26, (R)-1-(2-oxo-1-(3-phenylpropyl)-1,2,3,4-tetrahydroquinolin-3-yl)urea]
  IC50: > 30 µM

## N#Cc1cccc(CN2C(=O)[C@H](NC(N)=O)Cc3ccccc32)c1 [Example C-2, (R)-1-(1-(3-cyanobenzyl)-2-oxo-1,2,3,4-tetrahydroquinolin-3-yl)urea]
  IC50: > 30 µM

## N#Cc1ccc2c(c1)N(Cc1cccc(C(F)(F)F)c1)C(=O)[C@H](NC(N)=O)C2 [Example C-8, (R)-1-(7-cyano-2-oxo-1-(3-(trifluoromethyl)benzyl)-1,2,3,4-tetrahydroquinolin-3-yl)urea]
  IC50: 3 to 30 µM

## O=C(NC1CC1)N[C@@H]1CC[C@@H](C(F)F)N(Cc2cc(C(F)(F)F)ccc2F)C1=O [Example A-26, 1-cyclopropyl-3-((3R,6S)-6-(difluoromethyl)-1-(2-fluoro-5-(trifluoromethyl)benzyl)-2-oxopiperidin-3-yl)urea]
  IC50: 3 to 30 µM

## Cc1ccc(NC(N)=O)c(=O)n1Cc1cc(C(F)(F)F)cc(Cl)c1F [Example B-5, 1-(1-(3-chloro-2-fluoro-5-(trifluoromethyl)benzyl)-6-methyl-2-oxo-1,2-dihydropyridin-3-yl)urea]
  IC50: < 3 µM

## Cc1ccc(NC(=O)NC2CC2)c(=O)n1Cc1cc(C(F)(F)F)cc(Cl)c1F [Example B-11, 1-(1-(3-chloro-2-fluoro-5-(trifluoromethyl)benzyl)-6-methyl-2-oxo-1,2-dihydropyridin-3-yl)-3-cyclopropylurea]
  IC50: < 3 µM

## NC(=O)N[C@@H]1Cc2ccc(C(F)F)cc2N(Cc2cc(S(F)(F)(F)(F)F)ccc2F)C1=O [Example C-19, (R)-1-(7-(difluoromethyl)-1-(2-fluoro-5-(pentafluorosulfanyl)benzyl)-2-oxo-1,2,3,4-tetrahydroquinolin-3-yl)urea]
  IC50: < 3 µM

## CN(C)C[C@@H]1CC[C@@H](NC(N)=O)C(=O)N1Cc1cc(C(F)(F)F)ccc1F [Example D-9, 1-((3R,6S)-6-((dimethylamino)methyl)-1-(2-fluoro-5-(trifluoromethyl)benzyl)-2-oxopiperidin-3-yl)urea]
  IC50: > 30 µM

## CNC(=O)N[C@@H]1CC[C@@H](C(F)(F)F)N(Cc2cc(C(F)(F)F)ccc2F)C1=O [Example A-24, 1-((3R,6S)-1-(2-fluoro-5-(trifluoromethyl)benzyl)-2-oxo-6-(trifluoromethyl)piperidin-3-yl)-3-methylurea]
  IC50: < 3 µM

## CN(C)Cc1ccc(NC(N)=O)c(=O)n1Cc1cc(C(F)(F)F)cc(Cl)c1F [Example E-3, 1-(1-(3-chloro-2-fluoro-5-(trifluoromethyl)benzyl)-6-((dimethylamino)methyl)-2-oxo-1,2-dihydropyridin-3-yl)urea]
  IC50: < 3 µM

## NC(=O)Nc1ccc(CN2CCCC2)n(Cc2cc(C(F)(F)F)ccc2F)c1=O [Example E-6, 1-(1-(2-fluoro-5-(trifluoromethyl)benzyl)-2-oxo-6-(pyrrolidin-1-ylmethyl)-1,2-dihydropyridin-3-yl)urea]
  IC50: < 3 µM

## NC(=O)N[C@@H]1Cc2ccccc2N(Cc2cc(C(F)F)ccc2F)C1=O [Example C-4, (R)-1-(1-(5-(difluoromethyl)-2-fluorobenzyl)-2-oxo-1,2,3,4-tetrahydroquinolin-3-yl)urea]
  IC50: < 3 µM

## NC(=O)N[C@@H]1C[C@H]2C[C@H]2N(Cc2cc(C(F)(F)F)ccc2F)C1=O (relative stereo) [Example A-21, 1-((1R^*,4R^*,6S^*)-2-(2-fluoro-5-(trifluoromethyl)benzyl)-3-oxo-2-azabicyclo[4.1.0]heptan-4-yl)urea]
  IC50: < 3 µM

## NC(=O)N[C@@H]1CC[C@@H](C(F)F)N(Cc2cc(C(F)(F)F)ccc2F)C1=O [Example A-17, 1-((3R,6S)-6-(difluoromethyl)-1-(2-fluoro-5-(trifluoromethyl)benzyl)-2-oxopiperidin-3-yl)urea]
  IC50: < 3 µM

## NC(=O)N[C@@H]1Cc2c(F)cc(F)cc2N(Cc2cc(C(F)F)ccc2F)C1=O [Example C-17, (R)-1-(1-(5-(difluoromethyl)-2-fluorobenzyl)-5,7-difluoro-2-oxo-1,2,3,4-tetrahydroquinolin-3-yl)urea]
  IC50: < 3 µM

## C[C@H]1CC[C@@H](NC(N)=O)C(=O)N1CCc1cccc(C(F)(F)F)c1 (relative stereo) [Example A-23, 1-((3R^*,6S^*)-6-methyl-2-oxo-1-(3-(trifluoromethyl)phenethyl)piperidin-3-yl)urea]
  IC50: 3 to 30 µM

## CC(=O)N[C@@H]1CC[C@@H](C(F)F)N(Cc2cc(C(F)(F)F)ccc2F)C1=O [Example A-27, N-((3R,6S)-6-(difluoromethyl)-1-(2-fluoro-5-(trifluoromethyl)benzyl)-2-oxopiperidin-3-yl)acetamide]
  IC50: 3 to 30 µM

## NC(=O)Nc1cc(CCC(=O)O)cn(Cc2cc(C(F)(F)F)ccc2F)c1=O [Example B-2, 3-(1-(2-fluoro-5-(trifluoromethyl)benzyl)-6-oxo-5-ureido-1,6-dihydropyridin-3-yl)propanoic acid]
  IC50: > 30 µM

## NC(=O)N[C@@H]1Cc2ccccc2N(Cc2cccc3c2OC(F)(F)O3)C1=O [Example C-5, (R)-1-(1-((2,2-difluorobenzo[d][1,3]dioxol-4-yl)methyl)-2-oxo-1,2,3,4-tetrahydroquinolin-3-yl)urea]
  IC50: < 3 µM

## CC(C)(C)OC(=O)Nc1ccc2c(c1)OC(CC(N)=O)C(=O)N2Cc1cc(C(F)(F)F)ccc1F (centres unmarked) [Example F-8, tert-butyl (2-(2-amino-2-oxoethyl)-4-(2-fluoro-5-(trifluoromethyl)benzyl)-3-oxo-3,4-dihydro-2H-benzo[b][1,4]oxazin-7-yl)carbamate]
  IC50: < 3 µM

## NC(=O)N[C@@H]1Cc2ccc(CO)cc2N(Cc2cc(C(F)F)ccc2F)C1=O [Example C-16, (R)-1-(1-(5-(difluoromethyl)-2-fluorobenzyl)-7-(hydroxymethyl)-2-oxo-1,2,3,4-tetrahydroquinolin-3-yl)urea]
  IC50: < 3 µM

## CN(C)Cc1cccc2c1N(Cc1cc(C(F)(F)F)ccc1F)C(=O)[C@H](NC(N)=O)C2 [Example F-3, (R)-1-(8-((dimethylamino)methyl)-1-(2-fluoro-5-(trifluoromethyl)benzyl)-2-oxo-1,2,3,4-tetrahydroquinolin-3-yl)urea]
  IC50: 3 to 30 µM

## N#Cc1ccc(NC(N)=O)c(=O)n1Cc1cc(C(F)(F)F)ccc1F [Example B-7, 1-(6-cyano-1-(2-fluoro-5-(trifluoromethyl)benzyl)-2-oxo-1,2-dihydropyridin-3-yl)urea]
  IC50: < 3 µM

## Cc1ccc2c(c1)N(Cc1cccc(C(F)(F)F)c1)C(=O)[C@H](NC(N)=O)C2 [Example C-6, (R)-1-(7-methyl-2-oxo-1-(3-(trifluoromethyl)benzyl)-1,2,3,4-tetrahydroquinolin-3-yl)urea]
  IC50: < 3 µM

## NC(=O)N[C@@H]1CC[C@@H](C(F)(F)F)N(Cc2cc(CCC3CC3)ccc2F)C1=O [Example D-2, 1-((3R,6S)-1-(5-(2-cyclopropylethyl)-2-fluorobenzyl)-2-oxo-6-(trifluoromethyl)piperidin-3-yl)urea]
  IC50: < 3 µM
